These results are taken from patent US7517885B2, “Substituted [4-(4-phenyl-piperazin-1-yl)-cyclohexyl]-urea compounds” (Janssen Pharmaceutica N.V., priority 2005, dated 2009).

The structures appear in SMILES notation.

In one assay the target is T1, α1a-AR (Homo sapiens, UniProt P35348).
T1 construct: expressed in transfected cells; host or cells: COS-7 cells (membranes)
T1 sequence (P35348 1-455 isoform P35348-4): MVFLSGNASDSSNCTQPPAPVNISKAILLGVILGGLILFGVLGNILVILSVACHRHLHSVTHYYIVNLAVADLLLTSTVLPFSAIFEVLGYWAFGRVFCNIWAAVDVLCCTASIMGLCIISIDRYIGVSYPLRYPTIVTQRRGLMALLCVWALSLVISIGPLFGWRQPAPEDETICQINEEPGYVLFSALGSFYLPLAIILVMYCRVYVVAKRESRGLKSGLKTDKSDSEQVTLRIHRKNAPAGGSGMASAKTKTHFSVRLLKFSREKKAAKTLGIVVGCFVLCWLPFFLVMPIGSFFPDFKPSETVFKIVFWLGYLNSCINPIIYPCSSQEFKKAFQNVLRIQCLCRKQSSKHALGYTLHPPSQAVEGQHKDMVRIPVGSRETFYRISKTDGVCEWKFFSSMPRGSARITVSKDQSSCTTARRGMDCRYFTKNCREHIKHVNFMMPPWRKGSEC
Nature of the assay: α1-Adrenergic Receptor Binding Assay (125I-HEAT radio-ligand), α1a subtype. The settings on record: membranes of COS-7 cells transfected with α1a subtype; 125I-HEAT 50 pM; rt 1 hr. The method, then: (§1) α1-Adrenergic Receptor Binding Assay
(§2) Preparation of COS Cell Membranes
(§3) Membranes were prepared from COS-7 cells (African Green monkey kidney SV40-transformed cells) that had been transfected with one of the three α1-AR subtypes (Genbank accession number for the α1a subtype: AF013261; Genbank accession number for the α1b subtype: NM000679; Genbank accession number for the α1d subtype: NM000678) using the following method: COS cells from ten 100 mm tissue culture plates were scraped into a 5 mL volume of TE (a mixture of 50 mM Tris-HCl, 5 mM EDTA, pH 7.4). […] The disrupted cells were centrifuged at 1000×g min at 4° C. Supernatants were centrifuged at 34,500×g for 20 min at 4° C. The membrane pellets were suspended in a 2 mL volume of TNE (a mixture of 50 mM Tris-HCl, 5 mM EDTA and 150 mM NaCl at pH 7.4). An aliquot of the membrane suspension was stored at −70° C. until use. The protein concentration was determined using the BioRad “DC” protein assay kit following membrane solubilization with Triton X-100.
(§4) Radio-Ligand Binding Assay
(§5) Triplicate determinations of radio-ligand binding in the presence of increasing concentrations of testing compound were made. The reagents were added to 96-well polypropylene plate wells. […] The plate was incubated at rt for 1 hr. The contents of the wells were filtered through a glass filter (type C) (GF/C) membrane Unifilter plate (Packard Instruments) using the Packard Filtermate cell harvester. The filter plates were dried in a vacuum oven for 30 min at 40° C. 25 μL Microscint 20 liquid scintillation fluid (Packard Instruments) was added to each well. The radioactive content was analyzed in the TopCount microplate scintillation counter (Packard Instruments).

Another assay deals with T2, α1d-AR (Homo sapiens, UniProt P25100).
T2 construct: expressed in transfected cells; host or cells: COS-7 cells (membranes)
T2 sequence (P25100 1-572): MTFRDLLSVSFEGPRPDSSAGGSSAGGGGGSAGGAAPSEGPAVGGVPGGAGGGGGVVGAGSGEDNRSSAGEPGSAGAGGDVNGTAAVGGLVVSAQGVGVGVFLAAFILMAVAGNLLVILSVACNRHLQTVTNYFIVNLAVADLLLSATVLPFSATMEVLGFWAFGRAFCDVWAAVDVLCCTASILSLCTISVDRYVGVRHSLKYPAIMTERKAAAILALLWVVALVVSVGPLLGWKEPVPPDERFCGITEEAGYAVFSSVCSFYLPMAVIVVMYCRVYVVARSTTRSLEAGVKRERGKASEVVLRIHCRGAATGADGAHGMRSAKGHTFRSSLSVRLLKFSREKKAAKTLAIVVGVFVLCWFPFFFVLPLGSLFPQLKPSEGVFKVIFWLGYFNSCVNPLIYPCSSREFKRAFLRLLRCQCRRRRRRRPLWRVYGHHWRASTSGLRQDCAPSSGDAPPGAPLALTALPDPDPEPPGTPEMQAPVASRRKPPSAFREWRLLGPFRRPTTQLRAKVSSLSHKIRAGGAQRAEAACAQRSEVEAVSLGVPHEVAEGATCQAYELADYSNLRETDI
The assay can be described thus: α1-Adrenergic Receptor Binding Assay (125I-HEAT radio-ligand), α1d subtype. The settings on record: membranes of COS-7 cells transfected with α1d subtype; 125I-HEAT 50 pM; rt 1 hr. How it is done:
as §1, §2, §3, §4, §5

Another assay concerns the target T3, α1b-AR (Homo sapiens, UniProt P35368).
T3 construct: expressed in transfected cells; host or cells: COS-7 cells (membranes)
T3 sequence (P35368 1-520): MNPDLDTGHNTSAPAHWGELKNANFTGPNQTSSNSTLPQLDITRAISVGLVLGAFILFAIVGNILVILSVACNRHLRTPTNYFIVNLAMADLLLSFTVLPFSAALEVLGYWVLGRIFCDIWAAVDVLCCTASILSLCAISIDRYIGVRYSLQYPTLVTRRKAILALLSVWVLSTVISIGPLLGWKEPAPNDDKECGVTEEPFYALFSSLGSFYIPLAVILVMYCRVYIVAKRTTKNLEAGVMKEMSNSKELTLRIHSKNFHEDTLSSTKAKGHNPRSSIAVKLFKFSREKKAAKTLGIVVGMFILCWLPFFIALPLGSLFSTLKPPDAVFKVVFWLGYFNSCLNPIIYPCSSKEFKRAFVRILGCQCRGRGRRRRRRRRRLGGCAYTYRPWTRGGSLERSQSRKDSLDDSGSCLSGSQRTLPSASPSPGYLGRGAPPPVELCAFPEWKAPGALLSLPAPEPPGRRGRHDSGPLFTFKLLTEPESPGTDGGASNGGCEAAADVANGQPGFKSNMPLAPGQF
Nature of the assay: α1-Adrenergic Receptor Binding Assay (125I-HEAT radio-ligand), α1b subtype. The note with it: membranes of COS-7 cells transfected with α1b subtype; 125I-HEAT 50 pM; rt 1 hr. How it is done:
as §1, §2, §3, §4, §5

With `CC(C)Oc1ccccc1N1CCN([C@H]2CC[C@H](NC(=O)Nc3c(Cl)cccc3Cl)CC2)CC1` [Cpd 14, 1-(2,6-dichloro-phenyl)-r-3-{t-4-[4-(2-isopropoxy-phenyl)-piperazin-1-yl]-cyclohexyl}-urea], the Ki on α1a-AR amounted to 6.2 nM.

With `CC(C)Oc1ccccc1N1CCN([C@H]2CC[C@@H](NC(=O)Nc3cc(F)ccc3F)CC2)CC1` [Cpd 24, 1-(2,5-difluoro-phenyl)-r-3-{c-4-[4-(2-isopropoxy-phenyl)-piperazin-1-yl]-cyclohexyl}-urea], the values for the Ki at α1a-AR, on α1d-AR and at α1b-AR were 25.8 nM, 52.5 nM and 259 nM, respectively. Turning to `CC(C)Oc1ccccc1N1CCN([C@H]2CC[C@@H](NC(=O)Nc3c(Cl)cc(Cl)cc3Cl)CC2)CC1` [Cpd 15, r-1-{c-4-[4-(2-isopropoxy-phenyl)-piperazin-1-yl]-cyclohexyl}-3-(2,4,6-trichloro-phenyl)-urea], the Ki at α1a-AR turned out to be 51.2 nM; on α1d-AR, 25.3 nM; at α1b-AR, 483 nM.

Take `CC(C)Oc1ccccc1N1CCN([C@H]2CC[C@@H](NC(=O)Nc3ccc(OC(F)(F)F)cc3)CC2)CC1` [Cpd 31, r-1-{c-4-[4-(2-isopropoxy-phenyl)-piperazin-1-yl]-cyclohexyl}-3-(4-trifluoromethoxy-phenyl)-urea]: the Ki was determined as 48 nM at α1a-AR, 4.5 nM on α1d-AR and 277 nM at α1b-AR. Take `CC(C)Oc1ccccc1N1CCN([C@H]2CC[C@@H](NC(=O)Nc3ccc(F)cc3F)CC2)CC1` [Cpd 22, 1-(2,4-difluoro-phenyl)-r-3-{c-4-[4-(2-isopropoxy-phenyl)-piperazin-1-yl]-cyclohexyl}-urea]: the Ki at α1a-AR was found to be 14 nM; at α1b-AR, 475 nM. Turning to `CC(C)Oc1ccccc1N1CCN([C@H]2CC[C@H](NC(=O)Nc3cccc(Cl)c3)CC2)CC1` [Cpd 12, 1-(3-chloro-phenyl)-r-3-{t-4-[4-(2-isopropoxy-phenyl)-piperazin-1-yl]-cyclohexyl}-urea], the Ki on α1a-AR turned out to be 5.1 nM.

For `CC(C)Oc1ccccc1N1CCN([C@H]2CC[C@@H](NC(=O)Nc3cccc(Cl)c3)CC2)CC1` [Cpd 11, 1-(3-chloro-phenyl)-r-3-{c-4-[4-(2-isopropoxy-phenyl)-piperazin-1-yl]-cyclohexyl}-urea], affinity on α1a-AR was put at a Ki of 22.2 nM. As for `COc1ccc(Cl)cc1NC(=O)N[C@H]1CC[C@H](N2CCN(c3ccccc3OC(C)C)CC2)CC1` [Cpd 19, 1-(5-chloro-2-methoxy-phenyl)-r-3-{t-4-[4-(2-isopropoxy-phenyl)-piperazin-1-yl]-cyclohexyl}-urea], the figures for the Ki at α1a-AR and at α1d-AR were 34 nM and 2.7 nM, respectively. `COc1ccccc1NC(=O)N[C@H]1CC[C@@H](N2CCN(c3ccccc3OC(C)C)CC2)CC1` [Cpd 1, 1-{c-4-[4-(2-isopropoxy-phenyl)-piperazin-1-yl]-cyclohexyl}-r-3-(2-methoxy-phenyl)-urea]: the Ki on α1a-AR was 155 nM; at α1b-AR it was 223 nM. In the same order, the values of `COc1ccccc1NC(=O)N[C@H]1CC[C@H](N2CCN(c3ccccc3OC(C)C)CC2)CC1` [Cpd 2, 1-{t-4-[4-(2-isopropoxy-phenyl)-piperazin-1-yl]-cyclohexyl}-r-3-(2-methoxy-phenyl)-urea] are 38 nM and 107 nM. For `CC(C)Oc1ccccc1N1CCN([C@H]2CC[C@H](NC(=O)Nc3ccc(F)c(F)c3)CC2)CC1` [Cpd 8, 1-(3,4-difluoro-phenyl)-r-3-{t-4-[4-(2-isopropoxy-phenyl)-piperazin-1-yl]-cyclohexyl}-urea] the same measures were 3 nM and 74 nM. For the molecule `COc1ccc(NC(=O)N[C@H]2CC[C@@H](N3CCN(c4ccccc4OC(C)C)CC3)CC2)c(OC)c1` [Cpd 3, 1-(2,4-dimethoxy-phenyl)-r-3-{c-4-[4-(2-isopropoxy-phenyl)-piperazin-1-yl]-cyclohexyl}-urea], the Ki on α1a-AR was 110 nM; at α1d-AR it was 92 nM.

`CC(C)Oc1ccccc1N1CCN([C@H]2CC[C@H](NC(=O)Nc3ccc(F)cc3F)CC2)CC1` [Cpd 23, 1-(2,4-difluoro-phenyl)-r-3-{t-4-[4-(2-isopropoxy-phenyl)-piperazin-1-yl]-cyclohexyl}-urea]: the results for the Ki on α1a-AR and on α1b-AR were 3.1 nM and 76 nM, respectively. As for `CC(C)Oc1ccccc1N1CCN([C@H]2CC[C@@H](NC(=O)Nc3c(Cl)cccc3Cl)CC2)CC1` [Cpd 13, 1-(2,6-dichloro-phenyl)-r-3-{c-4-[4-(2-isopropoxy-phenyl)-piperazin-1-yl]-cyclohexyl}-urea], affinity at α1a-AR was put at a Ki of 33.4 nM. Turning to `COc1ccc(Cl)cc1NC(=O)N[C@H]1CC[C@@H](N2CCN(c3ccccc3OC(C)C)CC2)CC1` [Cpd 18, 1-(5-chloro-2-methoxy-phenyl)-r-3-{c-4-[4-(2-isopropoxy-phenyl)-piperazin-1-yl]-cyclohexyl}-urea], the Ki worked out at 101 nM on α1a-AR and 64 nM on α1d-AR.

Take `COc1ccc(NC(=O)N[C@H]2CC[C@H](N3CCN(c4ccccc4OC(C)C)CC3)CC2)c(OC)c1` [Cpd 4, 1-(2,4-dimethoxy-phenyl)-r-3-{t-4-[4-(2-isopropoxy-phenyl)-piperazin-1-yl]-cyclohexyl}-urea]: the Ki on α1a-AR came out at 74 nM; at α1d-AR, 20 nM.

For `CC(C)Oc1ccccc1N1CCN([C@H]2CC[C@@H](NC(=O)Nc3c(F)cccc3F)CC2)CC1` [Cpd 26, 1-(2,6-difluoro-phenyl)-r-3-{c-4-[4-(2-isopropoxy-phenyl)-piperazin-1-yl]-cyclohexyl}-urea], the Ki on α1a-AR was determined as 51.6 nM; at α1b-AR, 299 nM.

As for `CC(C)Oc1ccccc1N1CCN([C@H]2CC[C@H](NC(=O)Nc3c(F)cccc3F)CC2)CC1` [Cpd 27, 1-(2,6-difluoro-phenyl)-r-3-{t-4-[4-(2-isopropoxy-phenyl)-piperazin-1-yl]-cyclohexyl}-urea], the figures for the Ki at α1a-AR and on α1b-AR were 5.3 nM and 35.6 nM, respectively. In the same order, the values of `CC(C)Oc1ccccc1N1CCN([C@H]2CC[C@@H](NC(=O)Nc3ccc(F)c(F)c3)CC2)CC1` [Cpd 7, 1-(3,4-difluoro-phenyl)-r-3-{c-4-[4-(2-isopropoxy-phenyl)-piperazin-1-yl]-cyclohexyl}-urea] are 50.6 nM and 963 nM.
